Measurements published in US10961248B2, “Pesticidally active heterocyclic derivatives with sulfur containing substituents” (SYNGENTA PARTICIPATIONS AG, priority 2016, dated 2021).

Tests used:
Assay type in all cases: in vivo
[1] = system: Plutella xylostella (Diamond Back Moth); assay: Example B1: activity against Plutella xylostella, artificial diet in 24-well plates; conditions: 120 h, application rate 200 ppm, L2 larvae on artificial diet, 5 days after infestation, read-out: effect in at least one of the two categories (mortality or growth inhibition)
Experimental: (§1) 24-well microtiter plates with artificial diet were treated with aqueous test solutions prepared from 10'000 ppm DMSO stock solutions by pipetting. After drying, the plates were infested with L2 larvae (10 to 15 per well). The samples were assessed for mortality and growth inhibition in comparison to untreated samples 5 days after infestation.

[2] = system: Myzus persicae (Green Peach Aphid); assay: Example B2: activity against Myzus persicae, sprayed sunflower leaf discs; conditions: foliar, 144 h, application rate 200 ppm, aphid population of mixed ages, 6 days after infestation
Experimental: (§2) Sunflower leaf discs were placed on agar in a 24-well microtiter plate and sprayed with aqueous test solutions prepared from 10'000 ppm DMSO stock solutions. After drying, the leaf discs were infested with an aphid population of mixed ages. The samples were assessed for mortality 6 days after infestation.

[3] = system: Myzus persicae (Green Peach Aphid); assay: Example B3: activity against Myzus persicae, roots of pea seedlings in test solution; conditions: 144 h, test rate 24 ppm, roots of infested pea seedlings in test solution, 6 days
Experimental: Roots of pea seedlings infested with an aphid population of mixed ages were placed directly in the aqueous test solutions prepared from 10'000 DMSO stock solutions. The samples were assessed for mortality 6 days after placing seedlings in test solutions.

[4] = system: Frankliniella occidentalis (Western Flower Thrips); assay: Example B4: activity against Frankliniella occidentalis, sprayed sunflower leaf discs; conditions: foliar, 168 h, application rate 200 ppm, population of mixed ages, 7 days after infestation
Experimental: as §2, with “in” for “in a”, “plates” for “plate”, “10'000” for “10'000 ppm”, “drying” for “drying,”, “a Frankliniella” for “an aphid”, “7” for “6”

[5] = system: Bemisia tabaci (Cotton White Fly); assay: Example B5: activity against Bemisia tabaci, sprayed cotton leaf discs; conditions: foliar, 144 h, application rate 200 ppm, adult white flies, 6 days after incubation
Experimental: Cotton leaf discs were placed on agar in 24-well microtiter plates and sprayed with aqueous test solutions prepared from 10'000 ppm DMSO stock solutions. After drying the leaf discs were infested with adult white flies. The samples were checked for mortality 6 days after incubation.

[6] = system: Euschistus heros (Neotropical Brown Stink Bug); assay: Example B6: activity against Euschistus heros, sprayed soybean leaf; conditions: 120 h, application rate 200 ppm, N-2 nymphs, 5 days after infestation, read-out: effect in at least one of the two categories (mortality or growth inhibition)
Experimental: Soybean leaf on agar in 24-well microtiter plates were sprayed with aqueous test solutions prepared from 10'000 ppm DMSO stock solutions. After drying the leaf were infested with N-2 nymphs. The samples were assessed for mortality and growth inhibition in comparison to untreated samples 5 days after infestation.

[7] = system: Spodoptera littoralis (Egyptian Cotton Leaf Worm); assay: Example B7: activity against Spodoptera littoralis, sprayed cotton leaf discs; conditions: foliar, 72 h, application rate 200 ppm, L1 larvae, 3 days after infestation
Experimental: Cotton leaf discs were placed onto agar in 24-well microtiter plates and sprayed with aqueous test solutions prepared from 10'000 ppm DMSO stock solutions. After drying the leaf discs were infested with five L1 larvae. The samples were assessed for mortality, anti-feeding effect, and growth inhibition in comparison to untreated samples 3 days after infestation. Control of Spodoptera littoralis by a test sample is given when at least one of the categories mortality, anti-feedant effect, and growth inhibition is higher than the untreated sample.

[8] = system: Diabrotica Balteata (Corn Root Worm); assay: Example B7: activity against Diabrotica balteata, sprayed maize sprouts; conditions: 96 h, application rate 200 ppm, L2 larvae, 4 days after infestation, read-out: effect in at least one of the two categories (mortality or growth inhibition)
Experimental: as §1, with “Maize sprouts placed onto an agar layer in 24-well” for “24-well”, “plates” for “plates with artificial diet”, “spraying.” for “pipetting.”, “(6” for “(10”, “10” for “15”, “4” for “5”

CCS(=O)(=O)c1cc(N=S(C)(C)=O)cnc1-c1cn2cnc(C(F)(F)F)cc2n1 [P1, [5-ethylsulfonyl-6-[7-(trifluoromethyl)imidazo[1,2-c]pyrimidin-2-yl]-3-pyridyl]imino-dimethyl-oxo-λ^6-sulfane]
≥ 80%: percent effect (mortality or growth inhibition) at 200 ppm [1] | mortality at 200 ppm [2] | mortality at 24 ppm [3] | mortality at 200 ppm [4] | mortality at 200 ppm [5] | percent effect (mortality or growth inhibition) at 200 ppm [6] | percent control (mortality, anti-feedant effect or growth inhibition) at 200 ppm [7]

CCS(=O)(=O)c1cc(N=S2(=O)CCOCC2)cnc1-c1nc2cc(C(F)(F)F)ncc2n1C [P5, 4-[[5-ethylsulfonyl-6-[3-methyl-6-(trifluoromethyl)imidazo[4,5-c]pyridin-2-yl]-3-pyridyl]imino]-1,4-oxathiane 4-oxide]
≥ 80%: percent effect (mortality or growth inhibition) at 200 ppm [1] | mortality at 200 ppm [2] | mortality at 24 ppm [3] | mortality at 200 ppm [4] | mortality at 200 ppm [5] | percent effect (mortality or growth inhibition) at 200 ppm [6] | percent control (mortality, anti-feedant effect or growth inhibition) at 200 ppm [7]

CCS(=O)(=O)c1cc(N=S2(=O)CCCC2)cnc1-c1nc2cc(C(F)(F)F)ncc2n1C [P6, 1-[[5-ethylsulfonyl-6-[3-methyl-6-(trifluoromethyl)imidazo[4,5-c]pyridin-2-yl]-3-pyridyl]imino]thiolane 1-oxide]
≥ 80%: percent effect (mortality or growth inhibition) at 200 ppm [1] | mortality at 200 ppm [2] | mortality at 24 ppm [3] | mortality at 200 ppm [4] | mortality at 200 ppm [5] | percent effect (mortality or growth inhibition) at 200 ppm [6]

CCS(=O)(=O)c1cc(N=S(C)(=O)C2CC2)cnc1-c1cn2cnc(C(F)(F)F)cc2n1 (stereo not drawn) [P8, cyclopropyl-[[5-ethylsulfonyl-6-[7-(trifluoromethyl)imidazo[1,2-c]pyrimidin-2-yl]-3-pyridyl]imino]-methyl-oxo-λ^6-sulfane]
≥ 80%: percent effect (mortality or growth inhibition) at 200 ppm [1] | mortality at 200 ppm [2] | mortality at 24 ppm [3] | mortality at 200 ppm [4] | mortality at 200 ppm [5] | percent effect (mortality or growth inhibition) at 200 ppm [6] | percent effect (mortality or growth inhibition) at 200 ppm [8] | percent control (mortality, anti-feedant effect or growth inhibition) at 200 ppm [7]

CCS(=O)(=O)c1cc(N=S(C)(=O)C2CC2)cnc1-n1cc2cnc(C(F)(F)F)cc2n1 (stereo not drawn) [P12, cyclopropyl-[[5-ethylsulfonyl-6-[6-(trifluoromethyl)pyrazolo[4,3-c]pyridin-2-yl]-3-pyridyl]imino]-methyl-oxo-λ^6-sulfane]
≥ 80%: percent effect (mortality or growth inhibition) at 200 ppm [1] | mortality at 200 ppm [2] | mortality at 200 ppm [4] | mortality at 200 ppm [5] | percent effect (mortality or growth inhibition) at 200 ppm [6] | percent effect (mortality or growth inhibition) at 200 ppm [8] | percent control (mortality, anti-feedant effect or growth inhibition) at 200 ppm [7]

CCS(=O)(=O)c1cc(N=S2(=O)CCC2)cnc1-c1cn2cnc(C(F)(F)F)cc2n1 [P13, 1-[[5-ethylsulfonyl-6-[7-(trifluoromethyl)imidazo[1,2-c]pyrimidin-2-yl]-3-pyridyl]imino]thietane 1-oxide]
≥ 80%: percent effect (mortality or growth inhibition) at 200 ppm [1] | mortality at 200 ppm [2] | mortality at 24 ppm [3] | mortality at 200 ppm [4] | mortality at 200 ppm [5] | percent effect (mortality or growth inhibition) at 200 ppm [6] | percent control (mortality, anti-feedant effect or growth inhibition) at 200 ppm [7]

CCS(=O)(=O)c1cc(N=S(C)(C)=O)ccc1-c1cn2cnc(C(F)(F)F)cc2n1 [P14, [3-ethylsulfonyl-4-[7-(trifluoromethyl)imidazo[1,2-c]pyrimidin-2-yl]phenyl]imino-dimethyl-oxo-λ^6-sulfane]
≥ 80%: percent effect (mortality or growth inhibition) at 200 ppm [1] | mortality at 200 ppm [2] | mortality at 24 ppm [3] | mortality at 200 ppm [5] | percent effect (mortality or growth inhibition) at 200 ppm [6]

CCS(=O)(=O)c1cc(N=S(C)(=O)C2CC2)ccc1-c1cn2cnc(C(F)(F)F)cc2n1 (stereo not drawn) [P15, cyclopropyl-[3-ethylsulfonyl-4-[7-(trifluoromethyl)imidazo[1,2-c]pyrimidin-2-yl]phenyl]imino-methyl-oxo-λ^6-sulfane]
≥ 80%: percent effect (mortality or growth inhibition) at 200 ppm [1] | mortality at 200 ppm [2] | percent effect (mortality or growth inhibition) at 200 ppm [6] | percent effect (mortality or growth inhibition) at 200 ppm [8]

CCS(=O)(=O)c1cc(N=S(C)(C)=O)cnc1-n1cc2cnc(C(F)(F)F)cc2n1 [P16, [5-ethylsulfonyl-6-[6-(trifluoromethyl)pyrazolo[4,3-c]pyridin-2-yl]-3-pyridyl]imino-dimethyl-oxo-λ^6-sulfane]
≥ 80%: percent effect (mortality or growth inhibition) at 200 ppm [1] | mortality at 200 ppm [2] | mortality at 24 ppm [3] | mortality at 200 ppm [4] | mortality at 200 ppm [5] | percent effect (mortality or growth inhibition) at 200 ppm [6] | percent effect (mortality or growth inhibition) at 200 ppm [8] | percent control (mortality, anti-feedant effect or growth inhibition) at 200 ppm [7]

CCS(=O)(=O)c1cc(N=S(C)C)cnc1-c1nc2cc(C(F)(F)F)ncc2n1C [P17, [5-ethylsulfonyl-6-[3-methyl-6-(trifluoromethyl)imidazo[4,5-c]pyridin-2-yl]-3-pyridyl]imino-dimethyl-λ^4-sulfane]
≥ 80%: mortality at 200 ppm [2] | percent effect (mortality or growth inhibition) at 200 ppm [6] | percent effect (mortality or growth inhibition) at 200 ppm [8]

CCS(CC)=Nc1cnc(-c2nc3cc(C(F)(F)F)ncc3n2C)c(S(=O)(=O)CC)c1 [P18]
≥ 80%: mortality at 200 ppm [2] | percent effect (mortality or growth inhibition) at 200 ppm [6] | percent effect (mortality or growth inhibition) at 200 ppm [8]

CCS(=O)(=O)c1cc(N=S(C)(=O)CC)cnc1-c1nc2cc(C(F)(F)F)ncc2n1C (stereo not drawn) [P19, ethyl-[[5-ethylsulfonyl-6-[3-methyl-6-(trifluoromethyl)imidazo[4,5-c]pyridin-2-yl]-3-pyridyl]imino]-methyl-oxo-λ^6-sulfane]
≥ 80%: percent effect (mortality or growth inhibition) at 200 ppm [1] | mortality at 200 ppm [2] | mortality at 24 ppm [3] | mortality at 200 ppm [4] | mortality at 200 ppm [5] | percent effect (mortality or growth inhibition) at 200 ppm [6] | percent effect (mortality or growth inhibition) at 200 ppm [8]

CCSc1cc(N=S(C)(C)=O)cnc1-c1nc2cc(C(F)(F)F)ncc2n1C [P20, [5-ethylsulfanyl-6-[3-methyl-6-(trifluoromethyl)imidazo[4,5-c]pyridin-2-yl]-3-pyridyl]imino-dimethyl-oxo-λ^6-sulfane]
≥ 80%: mortality at 200 ppm [2] | mortality at 24 ppm [3] | mortality at 200 ppm [4] | percent effect (mortality or growth inhibition) at 200 ppm [6] | percent effect (mortality or growth inhibition) at 200 ppm [8]

CCS(=O)(=O)c1cc(N=S2(=O)CCOCC2)ccc1-c1nc2cc(C(F)(F)F)ncc2n1C [P21, 4-[3-ethylsulfonyl-4-[3-methyl-6-(trifluoromethyl)imidazo[4,5-c]pyridin-2-yl]phenyl]imino-1,4-oxathiane 4-oxide]
≥ 80%: mortality at 24 ppm [3] | mortality at 200 ppm [5] | percent effect (mortality or growth inhibition) at 200 ppm [6]

CCS(=O)(=O)c1cc(N=S2(=O)CCOCC2)cnc1-c1cn2cnc(C(F)(F)F)cc2n1 [P22, 4-[[5-ethylsulfonyl-6-[7-(trifluoromethyl)imidazo[1,2-c]pyrimidin-2-yl]-3-pyridyl]imino]-1,4-oxathiane 4-oxide]
≥ 80%: percent effect (mortality or growth inhibition) at 200 ppm [1] | mortality at 200 ppm [2] | mortality at 24 ppm [3] | mortality at 200 ppm [4] | mortality at 200 ppm [5] | percent effect (mortality or growth inhibition) at 200 ppm [6] | percent control (mortality, anti-feedant effect or growth inhibition) at 200 ppm [7]
